{"source": "patent US10117946B2", "about": "“Self-assembling ultrashort peptides modified with bioactive agents by click chemistry” (Agency for Science, Technology and Research, priority 2012, dated 2018)", "key": {"[1]": {"system": "SW480 (colon carcinoma) cells", "experiment": "Cytotoxicity, colorimetric microculture assay (MTS assay)", "assay_type": "cell-based, human", "conditions": "96 h exposure", "procedure": "(§1) Cytotoxicity of all synthesized compounds was evaluated on two human derived cancer cell lines namely HeLa (cervical carcinoma) and SW480 (colon carcinoma). 4T1 mouse breast cancer cells were also used for evaluation. Cells were first treated with different concentrations of the test compounds and incubated for 96 h at 37° C. Subsequently, the cell viability was measured by means of a colorimetric microculture assay (MTS assay).\n(§2) Human cervical carcinoma cell line HeLa, human colon carcinoma cell line SW480 and mouse breast cancer cell line 4T1 were purchased from the American Type Culture Collection (Manassas, Va., USA). The cell lines were cultured in DME medium (Biopolis shared facilities, A*STAR, SG) supplemented with 10% heat inactivated fetal bovine serum and 1% of mixture of penicillin and streptomycin (Invitrogen, CA, U.S.A). The cells were maintained in a 75 mL cell culture flask (Nunc) at 37° C. in a humidified incubator with 95% air and 5% CO2.\n(§3) Cytotoxicity was determined by means of a colorimetric microculture assay (MTs assay, MTS=[…]) For this purpose, HeLa, SW480, and 4T1 cells were harvested from culture flasks by trypsinization and seeded into 96-well microculture plates in cell densities of 3.5×10^3 cells/well. The cells were allowed to attach for 8 h. Subsequently, cells were exposed to serial dilutions of the test compounds in 150 μL/well complete culture medium for 96 h. Then 25 uL of CellTiter 96® Aqueous one solution reagent was added to the cells, followed by incubation for 2 h at 37° C. After incubation, the absorbance was measured at a wavelength of 499 nm using a microplate reader. The quantity of vital cells was expressed in terms of T/C values in comparison to untreated control microcultures, and 50% inhibitory concentrations (IC50) were calculated from concentration-effect curves by a nonlinear curve fit using Origin Lab 7.5."}, "[2]": {"system": "HeLa (cervical carcinoma) cells", "experiment": "Cytotoxicity, colorimetric microculture assay (MTS assay)", "assay_type": "cell-based, human", "conditions": "96 h exposure", "procedure": "as §1, §2, §3"}, "[3]": {"system": "4T1 mouse breast cancer cells", "experiment": "Cytotoxicity, colorimetric microculture assay (MTS assay)", "assay_type": "cell-based", "conditions": "96 h exposure", "procedure": "as §1, §2\nCytotoxicity was determined by means of a colorimetric microculture assay (MTs assay, MTS=[…]) For this purpose, HeLa, SW480, and 4T1 cells were harvested from culture flasks by trypsinization and seeded into 96-well microculture plates in cell densities of 3.5×10^3 cells/well. […] After incubation, the absorbance was measured at a wavelength of 499 nm using a microplate reader. […]"}, "[4]": {"experiment": "In vivo study, body weight comparison of treatment groups", "set-up": "species or system mouse", "text": "(§4) Female BALB/c mice were divided into four groups for treatment (PBS group and Ac-LIVAGK-NH2 (SEQ ID NO. 16 acylated and amidated) hydrogel group as negative controls, oxaliplatin as positive control and test compound 3 as a hybrid hydrogel with Ac-LIVAGK-NH2 (SEQ ID NO. 16 acylated and amidated)). Each group comprised of 9 mice. Tumour growth was initiated via a subcutaneous injection of 1 million 4T1 cells into the mouse flank. Seven days after cell injection, compound 3 was directly injected into the tumor using Ac-LIVAGK-NH2 (SEQ ID NO. 16 acylated and amidated), its parent peptide, as gel matrix. The same volume was accordingly injected into the other three groups. As a first dose 15 mg/kg oxaliplatin was used, which is equivalent to 44 mg/kg of compound 3. A re-injection was performed on day 21 of the experiment. The animals were sacrificed on day 28 and final tumor size was measured.\nThe same holds true for day 21 of the experiment. […] This was confirmed by a significant weight difference between the oxaliplatin group and the group treated with compound 3. Therefore, reinjection on day 21 involved only half the initial dose.\n(§5) Adult female Balb/c mice used in this study (weight 20 g; aged 6-8 weeks) were provided by Biological Resource Center (BRC), A*Star, Biopolis, Singapore. For tumor establishment, 1×10^6 mouse 4T1 breast cancer cells were injected subcutaneously into the flank of Balb/c mice (designated as day 0). To investigate the effect of the mixture of Oxaliplatin and hydrogel, the tumor-inoculated animals were divided into 4 groups (n=9 per group) on day 7 post-tumor inoculation and received an intratumor injection of sample solutions: phosphate buffered saline (PBS), Ac-LIVAGK-NH2 (SEQ ID NO. 16 acylated and amidated) (12.5 mg/mL) oxaliplatin (15 mg/kg), 3 (44 mg/kg) and Ac-LIVAGK-NH2 (SEQ ID NO. 16 acylated and amidated) (12.5 mg/mL). 100 μL of each sample were injected directly into the tumor. The hydrogels were prepared prior to injection by dissolving the peptide in 1×PBS and vortexing for 1 min. The sample containing 3 was prepared in a similar manner; 3 was dissolved in 1×PBS and the resulting solution was added to the peptide and vortexed for 1 min. A solid hydrogel was observed about 10 min after sample preparation, to allow in situ gelation inside the tumor.\n(§6) Data are represented as mean±SE. […] A P-value of <0.05 was considered to be statistically significant."}, "[5]": {"system": "4T1 breast cancer tumor in BALB/c mice", "experiment": "In vivo therapeutic efficacy, intratumoral injection, tumor volume", "set-up": "species or system mouse", "conditions": "for Tumor volume, Significant? vs. PBS, Day 14: Holm-Sidak, overall significance level 0.05, comparator PBS group", "text": "as §4, §5\nTumor volume was determined by measurement with an electronic digital vernier caliper. Readings were taken once a week until day 28 post-tumor inoculation. The ellipsoid volume of the tumor (mm^3) was then calculated using the formula: Volume=(Width)×(Length)×(height)×π/6.\nas §6"}, "[6]": {"system": "4T1 cells", "experiment": "Cell cycle analysis (propidium iodide, flow cytometry)", "assay_type": "cell-based, mouse", "conditions": "10 μM, 96 h", "procedure": "(§7) To further characterize the in vitro efficacy of 3-6, cell cycle analysis and measurement of caspase activity was conducted after incubation with the drug candidates. […] Oxaliplatin coordinates to DNA nucleotides, preventing the cell from crossing the DNA damage check point. […] This is very close to the oxaliplatin control were about 55% of the cells were in a G2/M arrest. […] The fact that all compounds were associated with an increase in the G2/M phase proves that compound 3-6 is able to bind to DNA in the tested cells, although the effect is not as pronounced as in the oxaliplatin control.\n(§8) Cells (3×10^6 cells) were seeded into 10 cm petridishes and allowed to recover for 24 h. The medium was exchanged to serum free DME medium and the cells were allowed to synchronize for 24 h. The medium was later changed to DME medium containing 10% heat inactivated fetal bovine serum and 1% of mixture of penicillin and streptomycin (Invitrogen, CA, U.S.A). Cells were exposed to 10 μM of the test compounds for 96 h. Control and treated cells were collected, washed with PBS, fixed in 70% ice-cold ethanol, and stored at −20° C. To determine cell cycle distributions, cells were transferred to a PBS solution, incubated with 10 μg/mL RNase A for 30 min at 37° C., and treated with 5 μg/mL propidium iodide for 30 min. Fluorescence of individual cells was measured by flow cytometry, […]"}, "[7]": {"system": "SW480 cells", "experiment": "Cell cycle analysis (propidium iodide, flow cytometry)", "assay_type": "cell-based, human", "conditions": "10 μM, 96 h", "procedure": "as §7, §8"}, "[8]": {"experiment": "Gelation ability in water (vortexing, left to stand overnight)", "assay_type": "physicochemical", "procedure": "To test the gelation ability of compounds 3-8, they were dissolved in water by vortexing and left to stand overnight. […] In contrast, the alkyne-derived peptide P1 gelled in water at a concentration of 30 mg/mL, which is close to the minimal gelation concentration of its parent peptide SEQ ID NO 16 Ac-LIVAGK-NH2 (Ac-LK6-NH2). […] We assume, that the derivatization of the peptides with cisplatin or oxaliplatin and a bulky triazole group interferes with their self-assembly by changing the lipophilicity of the N-terminus of the peptide. However, stable hybrid gels could be formed with up to 40 wt % loading when the parent peptide was used as a matrix."}, "[9]": {"conditions": "Holm-Sidak, 0.05, comparator Ac-LK6-NH2 hydrogel group"}, "[10]": {"conditions": "Holm-Sidak, 0.05, comparator PBS group"}, "[11]": {"conditions": "comparator Ac-LK6-NH2 hydrogel group"}, "[12]": {"conditions": "Holm-Sidak pairwise comparison, comparator Ac-LK6-NH2 hydrogel group"}, "[13]": {"conditions": "Holm-Sidak pairwise comparison, comparator PBS group"}}, "note": "Values joined by “and” are separate entries in the source; they are usually repeats but may differ in a detail not shown here. Equal values may be shown once."}
{"compound": "N.N.[Cl][Pt][Cl]", "note": "[cisplatin]", "values": [{"measurement": "IC50", "setting": "[1]", "result": "4 ± 2.5", "unit": "µM"}, {"measurement": "IC50", "setting": "[2]", "result": "0.62 µM and 1 µM"}, {"measurement": "IC50", "setting": "[3]", "result": "1.5 ± 0.6", "unit": "µM"}]}
{"compound": "O=C1[O][Pt]2([NH][C@@H]3CCCC[C@H]3[NH]2)[O]C1=O", "note": "[oxaliplatin]", "values": [{"measurement": "Weight, Significant? vs. Ac-LK6-NH2, Day 20", "setting": "[4]; [9]", "result": "Yes"}, {"measurement": "Weight, Significant? vs. Ac-LK6-NH2, Day 28", "setting": "[4]; [9]", "result": "Yes"}, {"measurement": "Weight, Significant? vs. PBS, Day 20", "setting": "[4]; [10]", "result": "Yes"}, {"measurement": "Weight, Significant? vs. PBS, Day 28", "setting": "[4]; [10]", "result": "Yes"}, {"measurement": "Weight, Mean, Day 20", "setting": "[4]; body weight of BALB/c mice, day 20, injection day 7, n=9", "result": 19.754}, {"measurement": "Weight, Mean, Day 28", "setting": "[4]; body weight of BALB/c mice, day 28, re-injection day 21 with half dose, n=9", "result": 20.593}, {"measurement": "Weight, Diff of Means vs. Ac-LK6-NH2, Day 20", "setting": "[4]; [11]", "result": 2.831}, {"measurement": "Weight, Diff of Means vs. Ac-LK6-NH2, Day 28", "setting": "[4]; [11]", "result": 1.982}, {"measurement": "Weight, Diff of Means vs. PBS, Day 20", "setting": "[4]; comparator PBS group", "result": 2.813}, {"measurement": "Weight, Diff of Means vs. PBS, Day 28", "setting": "[4]; comparator PBS group", "result": 1.742}, {"measurement": "effect on the mice at the administered dose, compared to conjugate 3", "setting": "[4]; oxaliplatin 15 mg/kg intratumoral, confirmed by significant weight difference", "result": "significant deleterious effect"}, {"measurement": "IC50", "setting": "[1]", "result": "0.5 µM and 0.47 µM"}, {"measurement": "IC50", "setting": "[2]", "result": "2 ± 0.8", "unit": "µM"}, {"measurement": "Tumor volume, Diff of Means vs. Ac-LK6-NH2, Day 14", "setting": "[5]; [12]", "result": 101.218, "unit": "mm^3"}, {"measurement": "Tumor volume, Diff of Means vs. Ac-LK6-NH2, Day 28", "setting": "[5]; [12]", "result": 1150.053, "unit": "mm^3"}, {"measurement": "Tumor volume, Diff of Means vs. LK6, Day 21", "setting": "[5]; Holm-Sidak pairwise comparison, comparator LK6 hydrogel group", "result": 487.488, "unit": "mm^3"}, {"measurement": "Tumor volume, Diff of Means vs. PBS, Day 14", "setting": "[5]; [13]", "result": 253.590, "unit": "mm^3"}, {"measurement": "Tumor volume, Diff of Means vs. PBS, Day 21", "setting": "[5]; [13]", "result": 580.470, "unit": "mm^3"}, {"measurement": "Tumor volume, Diff of Means vs. PBS, Day 28", "setting": "[5]; [13]", "result": 855.616, "unit": "mm^3"}, {"measurement": "Tumor volume, Significant? vs. Ac-LK6-NH2, Day 14", "setting": "[5]; [9]", "result": "No"}, {"measurement": "Tumor volume, Significant? vs. Ac-LK6-NH2, Day 28", "setting": "[5]; [9]", "result": "Yes"}, {"measurement": "Tumor volume, Significant? vs. LK6, Day 21", "setting": "[5]; Holm-Sidak, 0.05, comparator LK6 hydrogel group", "result": "Yes"}, {"measurement": "Tumor volume, Significant? vs. PBS, Day 21", "setting": "[5]; [10]", "result": "Yes"}, {"measurement": "Tumor volume, Significant? vs. PBS, Day 28", "setting": "[5]; [10]", "result": "Yes"}, {"measurement": "Tumor volume, Significant? vs. PBS, Day 14", "setting": "[5]", "result": "Significant tumor reduction"}, {"measurement": "Tumor volume, Significant? vs. PBS, Day 14", "setting": "[5]; listed as Oxaliplatin", "result": "Yes"}, {"measurement": "Tumor volume, Mean, Day 7", "setting": "[5]; day 7 post-tumor inoculation = day of first intratumoral injection (baseline), n=9", "result": 61.938, "unit": "mm^3"}, {"measurement": "Tumor volume, Mean, Day 14", "setting": "[5]; day 14, intratumoral injection day 7: oxaliplatin 15 mg/kg or 3 44 mg/kg in Ac-LIVAGK-NH2 gel, n=9", "result": 135.101, "unit": "mm^3"}, {"measurement": "Tumor volume, Mean, Day 21", "setting": "[5]; day 21, intratumoral injection day 7: oxaliplatin 15 mg/kg or 3 44 mg/kg in Ac-LIVAGK-NH2 gel, n=9", "result": 96.493, "unit": "mm^3"}, {"measurement": "Tumor volume, Mean, Day 28", "setting": "[5]; day 28, injection day 7, re-injection day 21 with half the initial dose, n=9", "result": 250.650, "unit": "mm^3"}, {"measurement": "apoptotic cells", "setting": "[6]", "result": "about 30%"}, {"measurement": "cells arrested in G2/M", "setting": "[6]", "result": "about 55%"}, {"measurement": "apoptotic cells", "setting": "[7]", "result": "no apoptotic cells"}, {"measurement": "cells arrested in G2/M", "setting": "[7]", "result": "about 80%"}, {"measurement": "IC50", "setting": "[3]", "result": "1.8 ± 0.5", "unit": "µM"}]}
{"compound": "P1: alkyne-derived (propiolic acid functionalized) peptide; parent peptide Ac-LIVAGK-NH2 (also: propiolic acid alkyne functionalization, site not given here) [Compound P1]", "values": [{"measurement": "concentration at which the peptide gelled in water", "setting": "[8]", "result": 30000, "unit": "µg/mL"}]}
